# Reference: the supplement of paper PMC10307832
# Assays:
# Assay in all cases: relative viability (nuclei count vs DMSO), 5 days (fraction); higher = more cells survive
# NCI-H1623 = tested on: NCI-H1623
# Summary of the method: (§1)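 For relative viability, nuclei counts in treated wells were divided by those in vehicle wells. Lung cancer cell lines had been pin-tool dosed in 1536-well plates the day after seeding and cultured for 5 days, then fixed and stained in one step (final 0.05% Triton X-100, 1% formaldehyde, 1 ug/ml Hoechst) and imaged at 4×. Doses were one drug alone or a fixed anchor-drug dose plus five library-drug doses (not always all listed) in √10 steps, and values are duplicate-plate medians.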
# UMC-11 = tested on: UMC-11
# Summary of the method: as §1
# NCI-H1648 = tested on: NCI-H1648
# Summary of the method: as §1
# A549 = tested on: A549
# Summary of the method: as §1
Structure (SMILES),relative viability (NCI-H1623; first compound 0.04 µM),relative viability (NCI-H1623; first compound 0.1265 µM),relative viability (NCI-H1623; first compound 0.4 µM),relative viability (NCI-H1623; first compound 4 µM),relative viability (UMC-11; first compound 0.04 µM),relative viability (UMC-11; first compound 0.1265 µM),relative viability (UMC-11; first compound 0.4 µM),relative viability (UMC-11; first compound 4 µM),relative viability (NCI-H1623; first compound 0.01 µM),relative viability (NCI-H1623; first compound 0.03162 µM),relative viability (NCI-H1623; first compound 0.3162 µM),relative viability (UMC-11; first compound 0.01 µM),relative viability (UMC-11; first compound 0.03162 µM),relative viability (UMC-11; first compound 0.3162 µM),relative viability (UMC-11; first compound 1.265 µM),further results
C[C@@H]1CN(CC(=O)Nc2ccc3c(c2)Cc2cccc(-c4cc(=O)cc(N5CCOCC5)o4)c2S3)C[C@H](C)O1 + CCNC(=O)c1noc(-c2cc(C(C)C)c(O)cc2O)c1-c1ccc(CN2CCOCC2)cc1 [Luminespib] (partner 0.01 µM),0.439,0.473,0.442,0.561,1.1,0.903,1.03,0.675,–,–,–,–,–,–,–,–
C[C@@H]1CN(CC(=O)Nc2ccc3c(c2)Cc2cccc(-c4cc(=O)cc(N5CCOCC5)o4)c2S3)C[C@H](C)O1 + COc1cccc2cc(-c3nc([C@H]4CC[C@H](C(=O)O)CC4)n4ncnc(N)c34)[nH]c12 [OSI-027] (partner 0.5 µM),0.411,0.413,0.412,0.381,0.51,0.464,0.472,0.352,–,–,–,–,–,–,–,relative viability (NCI-H1648; first compound 0.04 µM): 0.247; relative viability (NCI-H1648; first compound 0.1265 µM): 0.258; relative viability (NCI-H1648; first compound 0.4 µM): 0.242; relative viability (NCI-H1648; first compound 4 µM): 0.235
C[C@@H]1CN(CC(=O)Nc2ccc3c(c2)Cc2cccc(-c4cc(=O)cc(N5CCOCC5)o4)c2S3)C[C@H](C)O1 + Cc1cc(Nc2cc(N3CCN(C)CC3)nc(Sc3ccc(NC(=O)C4CC4)cc3)n2)n[nH]1 [Tozasertib] (partner 0.1 µM),0.461,0.409,0.406,0.417,0.208,0.198,0.19,0.199,–,–,–,–,–,–,–,relative viability (NCI-H1648; first compound 0.04 µM): 0.3; relative viability (NCI-H1648; first compound 0.1265 µM): 0.421; relative viability (NCI-H1648; first compound 0.4 µM): 0.542; relative viability (NCI-H1648; first compound 4 µM): 0.395
C[C@@H]1CN(CC(=O)Nc2ccc3c(c2)Cc2cccc(-c4cc(=O)cc(N5CCOCC5)o4)c2S3)C[C@H](C)O1 + Cc1nc(Nc2ncc(C(=O)Nc3c(C)cccc3Cl)s2)cc(N2CCN(CCO)CC2)n1 [Dasatinib] (partner 0.075 µM),0.57,0.555,0.51,0.588,0.475,0.478,0.505,0.448,–,–,–,–,–,–,–,–
C[C@@H]1CN(CC(=O)Nc2ccc3c(c2)Cc2cccc(-c4cc(=O)cc(N5CCOCC5)o4)c2S3)C[C@H](C)O1 + N=C(N)NC(=N)NCCc1ccccc1 [Phenformin] (partner 250 µM),0.523,0.617,0.54,0.61,0.363,0.33,0.338,0.288,–,–,–,–,–,–,–,relative viability (A549; first compound 0.04 µM): 0.106; relative viability (A549; first compound 0.1265 µM): 0.197; relative viability (A549; first compound 0.4 µM): 0.252; relative viability (A549; first compound 4 µM): 0.138
CC(C)Oc1cc(Nc2nc(N[C@@H](C)c3ccc(F)cn3)ncc2Cl)n[nH]1 [AZ23] + CCNC(=O)c1noc(-c2cc(C(C)C)c(O)cc2O)c1-c1ccc(CN2CCOCC2)cc1 [Luminespib] (partner 0.01 µM),–,–,–,–,–,–,–,–,0.476,0.49,0.529,1.15,1.05,0.988,–,–
CC(C)Oc1cc(Nc2nc(N[C@@H](C)c3ccc(F)cn3)ncc2Cl)n[nH]1 [AZ23] + COc1cccc2cc(-c3nc([C@H]4CC[C@H](C(=O)O)CC4)n4ncnc(N)c34)[nH]c12 [OSI-027] (partner 0.5 µM),–,–,–,–,–,–,–,–,0.401,0.401,0.43,0.429,0.505,0.494,–,relative viability (NCI-H1648; first compound 0.03162 µM): 0.258; relative viability (NCI-H1648; first compound 0.3162 µM): 0.256
CC(C)Oc1cc(Nc2nc(N[C@@H](C)c3ccc(F)cn3)ncc2Cl)n[nH]1 [AZ23] + Cc1cc(Nc2cc(N3CCN(C)CC3)nc(Sc3ccc(NC(=O)C4CC4)cc3)n2)n[nH]1 [Tozasertib] (partner 0.1 µM),–,–,–,–,–,–,–,–,0.402,0.427,0.504,0.181,0.197,0.19,–,relative viability (NCI-H1648; first compound 0.03162 µM): 0.542; relative viability (NCI-H1648; first compound 0.3162 µM): 0.502
CC(C)Oc1cc(Nc2nc(N[C@@H](C)c3ccc(F)cn3)ncc2Cl)n[nH]1 [AZ23] + Cc1nc(Nc2ncc(C(=O)Nc3c(C)cccc3Cl)s2)cc(N2CCN(CCO)CC2)n1 [Dasatinib] (partner 0.075 µM),–,–,–,–,–,–,–,–,0.503,0.578,0.57,0.593,0.504,0.481,–,–
CC(C)Oc1cc(Nc2nc(N[C@@H](C)c3ccc(F)cn3)ncc2Cl)n[nH]1 [AZ23] + N=C(N)NC(=N)NCCc1ccccc1 [Phenformin] (partner 250 µM),–,–,–,–,–,–,–,–,0.54,0.618,0.61,0.341,0.305,0.324,–,relative viability (A549; first compound 0.01 µM): 0.181; relative viability (A549; first compound 0.03162 µM): 0.227; relative viability (A549; first compound 0.3162 µM): 0.176
COc1cc(N2CCC(C(N)=O)CC2)ccc1Nc1nc(N)c(Cl)c(Nc2ccccc2S(=O)(=O)C(C)C)n1 [HG-5-88-01] + CCNC(=O)c1noc(-c2cc(C(C)C)c(O)cc2O)c1-c1ccc(CN2CCOCC2)cc1 [Luminespib] (partner 0.01 µM),0.539,0.619,0.529,0.47,0.914,1.08,–,1.12,–,–,–,–,–,–,0.983,–
COc1cc(N2CCC(C(N)=O)CC2)ccc1Nc1nc(N)c(Cl)c(Nc2ccccc2S(=O)(=O)C(C)C)n1 [HG-5-88-01] + COc1cccc2cc(-c3nc([C@H]4CC[C@H](C(=O)O)CC4)n4ncnc(N)c34)[nH]c12 [OSI-027] (partner 0.5 µM),0.451,0.378,0.408,0.296,0.347,0.521,–,0.334,–,–,–,–,–,–,0.464,relative viability (NCI-H1648; first compound 0.04 µM): 0.257; relative viability (NCI-H1648; first compound 0.1265 µM): 0.258; relative viability (NCI-H1648; first compound 0.4 µM): 0.259; relative viability (NCI-H1648; first compound 1.265 µM): 0.28; relative viability (NCI-H1648; first compound 4 µM): 0.29
COc1cc(N2CCC(C(N)=O)CC2)ccc1Nc1nc(N)c(Cl)c(Nc2ccccc2S(=O)(=O)C(C)C)n1 [HG-5-88-01] + Cc1cc(Nc2cc(N3CCN(C)CC3)nc(Sc3ccc(NC(=O)C4CC4)cc3)n2)n[nH]1 [Tozasertib] (partner 0.1 µM),0.512,0.449,0.399,0.377,0.213,0.205,–,0.191,–,–,–,–,–,–,0.192,relative viability (NCI-H1648; first compound 0.04 µM): 0.406; relative viability (NCI-H1648; first compound 0.1265 µM): 0.472; relative viability (NCI-H1648; first compound 0.4 µM): 0.43; relative viability (NCI-H1648; first compound 1.265 µM): 0.183; relative viability (NCI-H1648; first compound 4 µM): 0.329
COc1cc(N2CCC(C(N)=O)CC2)ccc1Nc1nc(N)c(Cl)c(Nc2ccccc2S(=O)(=O)C(C)C)n1 [HG-5-88-01] + Cc1nc(Nc2ncc(C(=O)Nc3c(C)cccc3Cl)s2)cc(N2CCN(CCO)CC2)n1 [Dasatinib] (partner 0.075 µM),0.533,0.532,0.498,0.486,0.434,0.449,–,0.409,–,–,–,–,–,–,0.469,–
COc1cc(N2CCC(C(N)=O)CC2)ccc1Nc1nc(N)c(Cl)c(Nc2ccccc2S(=O)(=O)C(C)C)n1 [HG-5-88-01] + N=C(N)NC(=N)NCCc1ccccc1 [Phenformin] (partner 250 µM),0.651,0.618,0.561,0.524,0.336,0.419,–,0.263,–,–,–,–,–,–,0.359,relative viability (A549; first compound 0.04 µM): 0.246; relative viability (A549; first compound 0.1265 µM): 0.24; relative viability (A549; first compound 0.4 µM): 0.327; relative viability (A549; first compound 1.265 µM): 0.347; relative viability (A549; first compound 4 µM): 0.183
